System: SH-SY5Y
Experiment: Neuroprotective activity against NMDA-induced cell injury in human SH-SY5Y cells assessed as cell viability at 5 uM incubated for 6 hrs followed by NMDA treatment for 0.5 hrs and subsequent replacement of fresh medium without compounds by MTT assay relative to control
Assay type: functional
Details: time 6.5 hrs, read-out: Activity

Row | SMILES | viability at 5 µM [%]
1 | O=C(Cc1ccc(O)cc1)NCCc1cn(Cc2ccccc2)c2ccccc12 | 41
2 | O=C(/C=C/c1ccc(O)cc1)NCCc1cn(Cc2ccccc2Br)c2ccccc12 | 36.7
3 | O=C(NCCc1cn(Cc2ccccc2)c2ccccc12)c1ccc(O)c(O)c1 | 44.9
4 | O=C(/C=C/c1ccc(O)cc1)NCCc1cn(Cc2ccccc2Cl)c2ccccc12 | 5.9
5 | O=C(/C=C/c1ccc(O)cc1)NCCc1cn(Cc2cccc(Cl)c2)c2ccccc12 | 25.2
6 | Cc1ccc(Cn2cc(CCNC(=O)/C=C/c3ccc(O)cc3)c3ccccc32)cc1 | 21
7 | CC(C)Cn1cc(CCNC(=O)/C=C/c2ccc(O)cc2)c2ccccc21 | 14.4

System: SH-SY5Y
Experiment: Neuroprotective activity against NMDA-induced cell injury in human SH-SY5Y cells assessed as cell viability at 0.5 uM incubated for 6 hrs followed by NMDA treatment for 0.5 hrs and subsequent replacement of fresh medium without compounds by MTT assay relative to control
Assay type: functional
Details: time 6.5 hrs, read-out: Activity

Row | SMILES | viability at 0.5 µM [%]
8 | O=C(Cc1ccc(O)cc1)NCCc1cn(Cc2ccccc2)c2ccccc12 | 42.2
9 | O=C(/C=C/c1ccc(O)cc1)NCCc1cn(Cc2ccccc2Br)c2ccccc12 | 32.3
10 | O=C(NCCc1cn(Cc2ccccc2)c2ccccc12)c1ccc(O)c(O)c1 | 32.1
11 | O=C(/C=C/c1ccc(O)cc1)NCCc1cn(Cc2ccccc2Cl)c2ccccc12 | 10.1
12 | O=C(/C=C/c1ccc(O)cc1)NCCc1cn(Cc2cccc(Cl)c2)c2ccccc12 | 38.8
13 | Cc1ccc(Cn2cc(CCNC(=O)/C=C/c3ccc(O)cc3)c3ccccc32)cc1 | 28.4
14 | CC(C)Cn1cc(CCNC(=O)/C=C/c2ccc(O)cc2)c2ccccc21 | 15.7

System: SH-SY5Y
Experiment: Neuroprotective activity against NMDA-induced cell injury in human SH-SY5Y cells assessed as cell viability at 0.05 uM incubated for 6 hrs followed by NMDA treatment for 0.5 hrs and subsequent replacement of fresh medium without compounds by MTT assay relative to control
Assay type: functional
Details: time 6.5 hrs, read-out: Activity

Row | SMILES | viability at 0.05 µM [%]
15 | O=C(Cc1ccc(O)cc1)NCCc1cn(Cc2ccccc2)c2ccccc12 | 21.1
16 | O=C(/C=C/c1ccc(O)cc1)NCCc1cn(Cc2ccccc2Br)c2ccccc12 | 45.1
17 | O=C(NCCc1cn(Cc2ccccc2)c2ccccc12)c1ccc(O)c(O)c1 | 29.4
18 | O=C(/C=C/c1ccc(O)cc1)NCCc1cn(Cc2ccccc2Cl)c2ccccc12 | 13.6
19 | O=C(/C=C/c1ccc(O)cc1)NCCc1cn(Cc2cccc(Cl)c2)c2ccccc12 | 32.2
20 | Cc1ccc(Cn2cc(CCNC(=O)/C=C/c3ccc(O)cc3)c3ccccc32)cc1 | 19.4
21 | CC(C)Cn1cc(CCNC(=O)/C=C/c2ccc(O)cc2)c2ccccc21 | 24.9

Reference: ChEMBL document CHEMBL5360573, “Discovery of novel tryptamine derivatives as GluN2B subunit-containing NMDA receptor antagonists via pharmacophore-merging strategy with orally available therapeutic effect of cerebral ischemia” (Eur J Med Chem, 2023)
